According to the supplement of paper PMC10307832:

What was measured:
Assay in all cases: relative viability (nuclei count vs DMSO), 5 days (fraction); higher = more cells survive
[1] = system: LK-2
In short: (§1)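 Lung cancer cell lines in 1536-well plates got either a single drug or a fixed anchor-drug dose together with five library-drug doses (not always all listed) in √10 steps, by pin tool, on the day after seeding. Nuclei were counted after 5 days, and relative viability is the treated-to-vehicle ratio of nuclei counts. Values are medians of duplicate plates.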

[2] = system: NCI-H2085
In short: as §1

[3] = system: NCI-H2405
In short: as §1

[4] = system: UMC-11
In short: as §1

[5] = system: H3255
In short: as §1

[6] = system: LCLC-103H
In short: as §1

[7] = system: NCI-H322M
In short: as §1

[8] = system: LU99A
In short: as §1

[9] = system: NCI-H2228
In short: as §1

[10] = system: NCI-H1437
In short: as §1

[11] = system: NCI-H1651
In short: as §1

[12] = system: RERF-LC-KJ
In short: as §1

[13] = system: NCI-H1792
In short: as §1

[14] = system: NCI-H23
In short: as §1

[15] = system: HARA
In short: as §1

[16] = system: LXF-289
In short: as §1

[17] = system: 201T
In short: as §1

[18] = system: HCC-827
In short: as §1

[19] = system: COR-L 105
In short: as §1

[20] = system: LC-2-ad
In short: as §1

[21] = system: CAL-12T
In short: as §1

[22] = system: HCC-15
In short: as §1

[23] = system: BEN
In short: as §1

**Q.** Which results are given for `Cc1cnc(-c2cnc(NCCNc3ccc(C#N)cn3)nc2-c2ccc(Cl)cc2Cl)[nH]1` + Cc1nc(Nc2ncc(C(=O)Nc3c(C)cccc3Cl)s2)cc(N2CCN(CCO)CC2)n1 [Dasatinib] (partner 0.075 µM)?
**A.** relative viability ([1]; first compound 0.08 µM): 0.387; relative viability ([1]; first compound 0.253 µM): 0.302; relative viability ([1]; first compound 0.8 µM): 0.39; relative viability ([2]; first compound 0.08 µM): 0.247; relative viability ([2]; first compound 0.253 µM): 0.239; relative viability ([2]; first compound 0.8 µM): 0.21; relative viability ([2]; first compound 2.53 µM): 0.239; relative viability ([3]; first compound 0.08 µM): 0.215; relative viability ([3]; first compound 0.253 µM): 0.223; relative viability ([3]; first compound 0.8 µM): 0.223; relative viability ([3]; first compound 2.53 µM): 0.195; relative viability ([4]; first compound 0.08 µM): 0.515; relative viability ([4]; first compound 0.253 µM): 0.542; relative viability ([4]; first compound 0.8 µM): 0.498; relative viability ([4]; first compound 2.53 µM): 0.527; relative viability ([5]; first compound 0.08 µM): 0.466; relative viability ([5]; first compound 0.253 µM): 0.445; relative viability ([5]; first compound 2.53 µM): 0.388; relative viability ([6]; first compound 0.08 µM): 0.404; relative viability ([6]; first compound 0.253 µM): 0.442; relative viability ([6]; first compound 0.8 µM): 0.434; relative viability ([6]; first compound 2.53 µM): 0.433; relative viability ([7]; first compound 0.08 µM): 0.246; relative viability ([7]; first compound 0.253 µM): 0.281; relative viability ([7]; first compound 0.8 µM): 0.248; relative viability ([7]; first compound 2.53 µM): 0.274; relative viability ([8]; first compound 0.08 µM): 0.507; relative viability ([8]; first compound 0.253 µM): 0.487; relative viability ([8]; first compound 0.8 µM): 0.528; relative viability ([8]; first compound 2.53 µM): 0.643; relative viability ([9]; first compound 0.08 µM): 0.548; relative viability ([9]; first compound 0.253 µM): 0.554; relative viability ([9]; first compound 0.8 µM): 0.494; relative viability ([9]; first compound 2.53 µM): 0.424; relative viability ([10]; first compound 0.08 µM): 0.425; relative viability ([10]; first compound 0.253 µM): 0.369; relative viability ([10]; first compound 0.8 µM): 0.309; relative viability ([10]; first compound 2.53 µM): 0.278; relative viability ([11]; first compound 0.08 µM): 0.426; relative viability ([11]; first compound 0.253 µM): 0.436; relative viability ([11]; first compound 0.8 µM): 0.376; relative viability ([11]; first compound 2.53 µM): 0.355; relative viability ([12]; first compound 0.08 µM): 0.9; relative viability ([12]; first compound 0.253 µM): 0.765; relative viability ([12]; first compound 0.8 µM): 0.796; relative viability ([12]; first compound 2.53 µM): 0.752; relative viability ([13]; first compound 0.08 µM): 0.998; relative viability ([13]; first compound 0.253 µM): 0.777; relative viability ([13]; first compound 0.8 µM): 0.772; relative viability ([13]; first compound 2.53 µM): 0.762; relative viability ([14]; first compound 0.08 µM): 0.879; relative viability ([14]; first compound 0.253 µM): 0.751; relative viability ([14]; first compound 0.8 µM): 0.871; relative viability ([14]; first compound 2.53 µM): 0.713; relative viability ([15]; first compound 0.08 µM): 0.223; relative viability ([15]; first compound 0.253 µM): 0.259; relative viability ([15]; first compound 0.8 µM): 0.343; relative viability ([15]; first compound 2.53 µM): 0.244; relative viability ([16]; first compound 0.08 µM): 0.249; relative viability ([16]; first compound 0.253 µM): 0.204; relative viability ([16]; first compound 0.8 µM): 0.189; relative viability ([16]; first compound 2.53 µM): 0.139; relative viability ([17]; first compound 0.08 µM): 0.621; relative viability ([17]; first compound 0.8 µM): 0.591; relative viability ([17]; first compound 2.53 µM): 0.571; relative viability ([18]; first compound 0.08 µM): 0.371; relative viability ([18]; first compound 0.8 µM): 0.291; relative viability ([18]; first compound 2.53 µM): 0.318; relative viability ([19]; first compound 0.08 µM): 0.354; relative viability ([19]; first compound 0.253 µM): 0.344; relative viability ([19]; first compound 0.8 µM): 0.282; relative viability ([19]; first compound 2.53 µM): 0.208; relative viability ([20]; first compound 0.08 µM): 0.662; relative viability ([20]; first compound 0.253 µM): 0.486; relative viability ([20]; first compound 2.53 µM): 0.471; relative viability ([21]; first compound 0.08 µM): 0.523; relative viability ([21]; first compound 0.253 µM): 0.358; relative viability ([21]; first compound 0.8 µM): 0.23; relative viability ([21]; first compound 2.53 µM): 0.198; relative viability ([22]; first compound 0.08 µM): 0.687; relative viability ([22]; first compound 0.253 µM): 0.509; relative viability ([22]; first compound 0.8 µM): 0.598; relative viability ([22]; first compound 2.53 µM): 0.625; relative viability ([23]; first compound 0.08 µM): 0.332; relative viability ([23]; first compound 0.253 µM): 0.364; relative viability ([23]; first compound 0.8 µM): 0.291; relative viability ([23]; first compound 2.53 µM): 0.351
